Results on four compounds are retold here after patent US9650635B2, “Pharmaceutical compositions comprising small interfering RNA inhibitors of NOX3” (UNIVERSITY OF GENEVA, priority 2004, dated 2017).

Type in all cases: cell-based
For one assay, the target named is T1, NOX3/NOXO1/NOXA1 (Mus musculus, UniProt Q672J9, D161Y).
T1 construct: expressed in transfected cells
Nature of the assay: Superoxide production of HEK293 cells expressing NOX3/NOXO1/NOXA1 (luminol-amplified chemiluminescence). On the procedure:
(§1) HEK293 were maintained in Dulbecco's Modified Eagle's Medium/Ham's Nutrient Mixture F12 that was supplemented with 10% fetal calf serum, penicillin (100 units/ml), streptomycin (100 μg/ml), and 4 mmol/liter L-glutamine. NOX3-, NOXO1-, NOXA1-, p47^phox, and p67^phox cDNAs were subcloned into pcDNA3.1 (Invitrogen, Groningen, Netherlands) and transfected into HEK293 cells with the Effectene transfection system (Qiagen). To obtain stable clones, NOX3, NOXO1, NOXA1-transfected HEK293 cells were selected with 400 μg/ml G418 starting on the 2nd day after the transfection. After 14 days of selection, 24 surviving clones were tested for superoxide production. The positive clones were verified to express NOX3-, NOXO1-, and NOXA1 RNA by RT-RCR.
(§2) ROS generation was measured by the peroxidase-dependent luminol-amplified chemiluminescence technique (referred to as luminol-amplified chemiluminescence) in 96 well microplates using Luminometer Wallac 1420 Multilabel Counter (PerkinElmer Life Sciences). Measurements were performed in Hanks' balanced salt solution supplemented with 1 mg/ml D-glucose, 1 unit/ml horseradish peroxidase, and 250 μM luminol. In some experiments, phorbol ester (PMA) was added during the measurements to 100 nM final concentration. When the effect of cisplatin or 5-Fluorouracil (5-FU) was investigated, these compounds were pre-incubated with the cells for the indicated time and concentration in cell culture medium. Before ROS measurements, the cell culture medium was exchanged with the assay solution and chemiluminescence or absorption (see below) was measured at 37° C. After measurements cells were counted, and the results were normalized to 150,000 cells. Extracellular superoxide production was measured in 96-well microplates at 550 nm as the SOD-sensitive reduction of 100 μM ferricytochrome C (referred to as cytochrome C reduction technique). The O^−2 production was calculated using an absorption coefficient of 21.1 mM^−1 cm^−1 and normalized to 10^7 cells.

Assay [1] has as its target T2, NOX3, p47^phox, and p67^phox (Mus musculus, UniProt Q672J9, D161Y).
T2 construct: expressed in transfected cells; host or cells: HEK293, transient co-transfection, pcDNA3.1
T2 sequence (Q672J9 1-568 D161Y): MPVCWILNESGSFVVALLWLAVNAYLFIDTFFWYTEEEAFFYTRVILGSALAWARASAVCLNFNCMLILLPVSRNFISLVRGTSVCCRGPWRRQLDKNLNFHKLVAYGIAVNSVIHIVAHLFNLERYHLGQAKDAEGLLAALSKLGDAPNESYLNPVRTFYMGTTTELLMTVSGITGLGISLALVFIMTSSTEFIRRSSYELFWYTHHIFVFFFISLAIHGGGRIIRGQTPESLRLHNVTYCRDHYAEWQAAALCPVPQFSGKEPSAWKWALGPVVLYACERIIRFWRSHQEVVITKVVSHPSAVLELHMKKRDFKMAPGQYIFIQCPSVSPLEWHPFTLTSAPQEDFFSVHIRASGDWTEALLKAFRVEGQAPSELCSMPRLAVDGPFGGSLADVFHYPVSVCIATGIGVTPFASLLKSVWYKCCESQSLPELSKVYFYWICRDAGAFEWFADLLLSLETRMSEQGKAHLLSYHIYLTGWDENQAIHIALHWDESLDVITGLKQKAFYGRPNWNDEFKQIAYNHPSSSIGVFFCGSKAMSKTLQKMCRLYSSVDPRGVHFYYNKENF
T2 sequence (P13498 1-195 partner): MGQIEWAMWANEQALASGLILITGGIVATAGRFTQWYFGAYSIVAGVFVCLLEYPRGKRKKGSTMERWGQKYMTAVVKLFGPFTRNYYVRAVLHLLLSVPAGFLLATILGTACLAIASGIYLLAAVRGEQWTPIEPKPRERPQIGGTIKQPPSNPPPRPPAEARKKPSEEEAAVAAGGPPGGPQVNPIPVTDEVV
Nature of the assay: Superoxide production of HEK293 cells co-transfected with NOX3, p47phox and p67phox. On the procedure: as §1, §2

Assay [2] has as its system HEK293 cells transfected with control vector (pcDNA3.1). The experiment in a line: Superoxide production of HEK293 cells transfected with control vector. To be noted: control-transfected (pcDNA3.1) HEK293 cells, 20 μM cisplatin, 12 hours. On the procedure:
as §1, with “The positive clones were verified to express NOX3-, NOXO1-, and NOXA1 RNA by RT-RCR.” left out
(§3) ROS generation was measured by the peroxidase-dependent luminol-amplified chemiluminescence technique (referred to as luminol-amplified chemiluminescence) in 96 well microplates using Luminometer Wallac 1420 Multilabel Counter (PerkinElmer Life Sciences). […] Before ROS measurements, the cell culture medium was exchanged with the assay solution and chemiluminescence or absorption (see below) was measured at 37° C. After measurements cells were counted, and the results were normalized to 150,000 cells. Extracellular superoxide production was measured in 96-well microplates at 550 nm as the SOD-sensitive reduction of 100 μM ferricytochrome C (referred to as cytochrome C reduction technique). […]

A further assay has as its target T3, NOX3 (Mus musculus, UniProt Q672J9, D161Y).
T3 construct: expressed in transfected cells; host or cells: HEK293, transient transfection, pcDNA3.1
T3 sequence (Q672J9 1-568 D161Y): T2 sequence (Q672J9 1-568 D161Y)
T3 sequence (P13498 1-195 partner): T2 sequence (P13498 1-195 partner)
The experiment in a line: Superoxide production of HEK293 cells transfected with NOX3 alone (luminol-amplified chemiluminescence / Diogenes / cytochrome C reduction). On the procedure:
as §1, §2

Assay [3] concerns the target T4, p47^phox, NOXA1, and NOX3 (Mus musculus, UniProt Q672J9, D161Y).
T4 construct: expressed in transfected cells; host or cells: HEK293, transient co-transfection, pcDNA3.1
T4 sequence (Q672J9 1-568 D161Y): T2 sequence (Q672J9 1-568 D161Y)
T4 sequence (P13498 1-195 partner): T2 sequence (P13498 1-195 partner)
Nature of the assay: Superoxide production of HEK293 cells expressing p47phox, NOXA1 and NOX3. The following applies: 100 nM PMA. On the procedure:
as §1, with “The positive clones were verified to express NOX3-, NOXO1-, and NOXA1 RNA by RT-RCR.” left out
as §3

Assay [4] addresses T5, NOXO1, p67^phox, and NOX3 (Mus musculus, UniProt Q672J9, D161Y).
T5 construct: expressed in transfected cells; host or cells: HEK293, transient co-transfection, pcDNA3.1
Nature of the assay: Superoxide production of HEK293 cells expressing NOXO1, p67phox and NOX3. To be noted: 100 nM PMA. On the procedure:
as §1, with “The positive clones were verified to express NOX3-, NOXO1-, and NOXA1 RNA by RT-RCR.” left out
as §3

[5] abbreviates: stable clone, 12 hours incubation.

SMILES strings stand for the structures.

T1 sequence (Q8NFA2 whole entry partner, one chain of several): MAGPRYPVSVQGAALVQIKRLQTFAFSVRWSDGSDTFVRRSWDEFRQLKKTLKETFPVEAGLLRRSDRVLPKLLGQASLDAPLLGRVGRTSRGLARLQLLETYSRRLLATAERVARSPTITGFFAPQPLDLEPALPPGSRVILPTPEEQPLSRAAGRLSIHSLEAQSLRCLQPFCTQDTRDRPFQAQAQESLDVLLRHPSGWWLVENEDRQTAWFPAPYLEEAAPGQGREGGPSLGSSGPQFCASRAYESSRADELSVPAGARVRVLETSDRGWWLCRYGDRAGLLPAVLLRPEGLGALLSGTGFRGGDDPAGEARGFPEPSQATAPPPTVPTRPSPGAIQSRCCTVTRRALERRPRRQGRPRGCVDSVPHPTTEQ
T1 sequence (Q86UR1 whole entry partner, one chain of several): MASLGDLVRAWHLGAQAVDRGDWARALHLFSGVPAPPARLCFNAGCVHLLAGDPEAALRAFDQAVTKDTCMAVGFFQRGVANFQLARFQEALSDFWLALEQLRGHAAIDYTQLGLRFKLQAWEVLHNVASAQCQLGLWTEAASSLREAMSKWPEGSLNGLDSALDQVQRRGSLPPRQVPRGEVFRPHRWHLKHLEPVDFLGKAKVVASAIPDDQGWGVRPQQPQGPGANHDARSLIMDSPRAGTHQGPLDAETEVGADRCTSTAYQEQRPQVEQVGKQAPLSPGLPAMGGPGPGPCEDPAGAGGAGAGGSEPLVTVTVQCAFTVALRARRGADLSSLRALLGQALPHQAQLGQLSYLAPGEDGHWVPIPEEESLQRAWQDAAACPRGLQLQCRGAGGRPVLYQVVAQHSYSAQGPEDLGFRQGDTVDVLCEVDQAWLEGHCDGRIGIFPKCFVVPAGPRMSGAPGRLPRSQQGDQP
T5 sequence (Q8NFA2 whole entry partner, one chain of several): as the sequence (Q8NFA2 whole entry partner, one chain of several) above
T5 sequence (P19878 whole entry partner, one chain of several): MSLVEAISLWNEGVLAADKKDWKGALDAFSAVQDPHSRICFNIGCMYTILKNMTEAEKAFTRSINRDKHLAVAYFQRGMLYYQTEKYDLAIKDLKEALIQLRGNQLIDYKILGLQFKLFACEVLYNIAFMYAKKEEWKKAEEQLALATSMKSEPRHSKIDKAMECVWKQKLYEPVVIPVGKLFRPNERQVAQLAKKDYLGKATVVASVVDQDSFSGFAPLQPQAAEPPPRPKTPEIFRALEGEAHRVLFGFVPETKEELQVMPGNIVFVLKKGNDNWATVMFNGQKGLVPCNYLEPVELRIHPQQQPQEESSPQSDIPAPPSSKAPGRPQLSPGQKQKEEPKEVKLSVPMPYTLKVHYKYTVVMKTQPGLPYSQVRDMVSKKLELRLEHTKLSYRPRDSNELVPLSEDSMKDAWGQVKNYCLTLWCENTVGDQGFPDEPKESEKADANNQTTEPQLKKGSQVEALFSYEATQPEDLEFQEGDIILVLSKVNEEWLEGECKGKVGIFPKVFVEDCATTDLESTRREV

For the compound `O=c1[nH]cc(F)c(=O)[nH]1` [5-fluorouracil, 5-Fluorouracil], the “effect of 5-fluorouracil on superoxide production” value at NOX3/NOXO1/NOXA1 (100 μM, 17 hours, data not shown) is reported as “did not influence superoxide production”.
In the case of `N.N.[Cl][Pt][Cl]` [Cisplatin], in assay [1] (20 μM cisplatin, 12 hours), the “factor of enhancement of superoxide production” value is “approximately 3.3”. Also, the “effect of cisplatin on superoxide production” value (shortened to “effect of cisplatin”) in assay [2] is “not in control-transfected cells”. Also, the “effect of cisplatin” value at NOX3/NOXO1/NOXA1 (stable HEK293 clones, 20 μM cisplatin, 12 hours) is listed as “marked increase of superoxide production”. In addition, at NOX3/NOXO1/NOXA1 (stable clone, 20 μM cisplatin), the “t50 of NOX3 activation” value amounted to 11.5 ± 1.7 h, the “treatment time at which NOX3 activity is already enhanced” value was determined as 5 h and the “treatment time to maximal effect” value was “around 17 hours”. Besides, on NOX3/NOXO1/NOXA1 (setting [5]), the “concentration at which NOX3-dependent ROS generation is already increased” value amounted to 1 µM and the “concentration with maximal effect on NOX3-dependent ROS generation” value is 20 µM. In addition, the EC50 (as a rule, the concentration that produces a half-maximal response) on NOX3/NOXO1/NOXA1 (stable clone, 12 hours incubation, read-out: EC50 of NOX3 activation) was found to be 3.6 µM. In addition, the “effect of cisplatin” value on NOX3 (NOX3-transfected HEK293 cells, 20 μM cisplatin, 12 hours, before PMA addition) is listed as “elicited superoxide production”.
As to `c1ccc2c(c1)[I+]c1ccccc1-2` [DPI, diphenylene iodonium], the “effect of DPI on superoxide production” value in assay [1] (cisplatin-treated cells, 5 μM DPI, not shown) is given as “blocked”. In addition, the “effect of DPI on superoxide generation” value on NOX3/NOXO1/NOXA1 (stable HEK293 clones, with or without cisplatin, 5 μM DPI) was “abolished”; at NOX3 (NOX3-transfected HEK293 cells, cisplatin and PMA treated, 5 μM DPI) it was “blocked it completely”.
For the compound `CCCCCCCCCCCCCC(=O)O[C@@H]1[C@@H](C)[C@@]2(O)[C@@H](C=C(CO)C[C@]3(O)C(=O)C(C)=C[C@@H]23)[C@@H]2C(C)(C)[C@]12OC(C)=O` [PMA, phorbol 12-myristate 13-acetate], the “effect of PMA on superoxide production” value in assay [3] is “largely PMA-dependent”. In addition, the “effect of PMA on NOX3 activity” value in assay [1] (100 nM PMA) is listed as “strong enhancement of NOX3 activity”. Moreover, the “effect of PMA on superoxide generation” value in assay [4] is reported as “could not be further enhanced by PMA”; at NOX3/NOXO1/NOXA1 (NOX3/NOXO1/NOXA1 HEK293 cells, 100 nM PMA), “insensitive to PMA”. The “effect of PMA on superoxide generation after cisplatin” value at NOX3 (NOX3-transfected HEK293 cells pre-incubated with 20 μM cisplatin, 100 nM PMA) is on record as “further increased superoxide generation”. Besides, on NOX3 (NOX3-transfected HEK293 cells, no other subunits, 100 nM PMA), the “superoxide generation in the presence of PMA” value was “low amounts of superoxide”.
